In patent publication US20240041878A1, “APELIN RECEPTOR MODULATORS FOR TREATMENT OF A DISORDER OR DISEASE ASSOCIATED WITH BBB PERMEABILITY” (BioAge Labs, Inc., priority 2022, published 2024):

What was measured:
Embryonic rat neurons = assay: Neuronal survival after RAC-conditioned media (ApoTox-Glo Triplex Assay); type: cell-based
Text: Mice were handled in accordance with principles and guidelines established by the “Guide for the Care and Use of Laboratory Animals” and overseen by the BioAge Lab's Institutional Animal Care and Use Committee (IACUC). Mouse primary astrocytes were isolated and cultured in 0.01% poly-L-lysine coated 6- or 12-well tissue culture plates at 200,000 or 120,000 cells/well, respectively, with astrocyte growth media as previously described in (Lundquist et al. 2022. Knockdown of Astrocytic Monocarboxylate Transporter 4 in the Motor Cortex Leads to Loss of Dendritic Spines and a Deficit in Motor Learning. Mol Neurobiol 59, 1002-1017). Embryonic rat neurons were purchased from ScienCell (Cat. #R1550) and cultured in neuronal media (ScienCell, Cat. #1521) per manufacturer's protocol, with slight modifications. Briefly, neurons were thawed and resuspended in neuronal media with the addition of 1 μg laminin (Sigma, Cat. #L2020) per 1 mL culture media, then plated in 0.01% poly-L-lysine coated 96-well tissue culture plates at 60,000 cells/well. […]
For analysis of neuronal survival, culture media was collected after RAC treatment and added directly to rat neurons (previously described above) for 24 hours. After exposure, neuronal viability was assessed with the ApoTox-Glo Triplex Assay according to manufacturer's protocol (Promega, Cat. #G6320). […]

[1] = test system: primary SOD1^G93A mouse astrocytes; assay: Primary SOD1^G93A mouse astrocytes: cytokine release and NF-κB signaling; type: cell-based
Text: The study characterizes effects of BGE-105 on primary astrocytes derived from wildtype and SOD1^G93A mice in vitro. This includes measuring effects on gene expression, secretion of inflammatory cytokines, and glutamate uptake.
The study utilizes primary mouse astrocyte and neuron cultures generated from the SOD1^G93A mouse model of familial ALS as previously described (Lundquist et al. 2019. Exercise induces region-specific remodeling of astrocyte morphology and reactive astrocyte gene expression patterns in male mice. Journal of Neuroscience Research, 97(9), 1081-1094) with some modifications. Briefly, whole spinal cords are resected from PNDO-4 (postnatal day) SOD1^G93A+ pups and wildtype littermates. […]
Astrocytes from wildtype and SOD1^G93A mice are first studied in isolation to compare transcriptomic and cytokine release profiles. […] ACM (astrocyte-conditioned media) are analyzed for release of cytokines and neurotrophic factors using Mouse Proteome Profiler Arrays (R&D Systems), and commercially available ELISAs (for select cytokines from protein arrays). Astrocytic gene expression are analyzed by RT-qPCR, and astrocyte protein expression are analyzed by western blotting as previously described (Lundquist et al, 2022).

[2] = test system: human patient, iPSC-derived neurons; assay: Neurons from patient derived induced pluripotent stem cells (iPSCs); type: cell-based; conditions: compared to cells not treated with BGE-105
Text: This study assesses the effect of BGE-105 (or media from other brain cells exposed to BGE-105, such as microglia and astrocytes) in human patient, iPSC-derived neurons improves a variety of functions associated with beneficial neuronal outcomes, including those listed below • i. proliferation and survival • ii. Autophagy • iii. synaptic plasticity • iv. ROS production

26 month-old mice = assay: Total BDNF ELISA in hippocampus of aged mice; type: in vivo, mouse; conditions: 50 mg/kg BID P.O. one week, p<0.05
Method: The mice were handled in accordance with principles and guidelines established by the “Guide for the Care and Use of Laboratory Animals” and overseen by the BioAge Lab's institutional animal care and use committee (IACUC). Mice were housed conventionally in a constant temperature (20-22° C.) and humidity (40%-60%) animal room with a 12/12 h light/dark cycle and free access to food and water. 26 month-old mice were randomized based on the body weight and body condition scores to two groups (vehicle or BGE-105, n=8). Mice were administered P.O. vehicle or BGE-105 at 50 mg/kg (BID) for one week. […]
Hippocampal samples were homogenized with 30 volumes of radioimmunoprecipitation immunoassay (RIPA) buffer with Halt Protease and Phosphatase Inhibitor (Thermofisher) before being spun at 16,000×g for 20 minutes at 4° C. and supernatant removed to new, labeled tube. Total protein concentrations for each sample were analyzed with Pierce BCA Protein Assay Kit (Thermofisher) according to manufacturer's instructions, then all samples were diluted to 0.2 μg/μL with RIPA buffer.
For quantitative analysis of hippocampal BDNF expression, tissue samples were assessed with Quantikine® enzyme-linked immunosorbent assay (ELISA) for Total BDNF (R&D Systems) according to manufacturer's instructions. […]

## COc1cccc(OC)c1-n1c(NS(=O)(=O)[C@@H](C)[C@H](C)c2ncc(C)cn2)nnc1-c1cncc(C)c1 [BGE-105, (2S,3R)—N-(4-(2,6-dimethoxyphenyl)-5-(5-methyl-3-pyridinyl)-4H-1,2,4-triazol-3-yl)-3-(5-methyl-2-pyrimidinyl)-2-butanesulfonamide]
Embryonic rat neurons; RAC+ex105 [50 nM], added directly to neurons in addition to the toxic RAC media
  cell viability relative to RAC, exogenous BGE-105: did not provide statistical change
Embryonic rat neurons; media of astrocytes treated with RAC+BGE105 [250 nM], added to neurons 24 hours
  increase of cellular viability as compared to RAC: about 30%
[1]; 250 nM BGE-105, 24 hours
  release of proinflammatory cytokines into astrocyte conditioned media (ACM): release less proinflammatory cytokines
[1]; untreated versus BGE-105 treated SOD1^G93A astrocytes
  NF-κB signaling activity: changes to NF-κB signaling activity
[2]
  survival, differentiation and cellular functioning of stem-cell-derived neurons: improves overall survival, differentiation, and cellular functioning
26 month-old mice
  increase of concentration of total BDNF in the hippocampus: 20%
